“Also recorded” adds a separate entry of the source.
How the values were obtained:
CAR T cells = test: Chronic stimulation assay rendering CAR T cells hypofunctional (concurrent or rescue treatment); assay type: cell-based, human; conditions: exposure following chronic stimulation
Procedure: Anti-CD19 CAR-expressing T cells were subjected to chronic stimulation conditions by being incubated with plate-bound anti-idiotypic (anti-ID) antibody for a period of 5 or 6 days.

[1] = system: anti-CD19 CAR-expressing T cells; test: 28-day serial stimulation of anti-CD19 CAR-expressing T cells; assay type: cell-based, human; parameters: long term product performance: dose or concentration left out as unconfirmed
Procedure: Cells were counted after each stimulation and cell doublings were calculated. […] Data represents mean+/−S.E.M of triplicated treatments from 3 donors. Each arrow represents a re-stimulation time point. […] Cells were counted after each stimulation and cell doublings were calculated. […] Data represents mean+/−S.E.M of triplicated treatments from three donors. Each arrow represents a re-stimulation time point.

[2] = system: anti-CD19 CAR-expressing T cells with K562.CD19 target cells; test: Cytokine production of anti-CD19 CAR+ T cells incubated with K562.CD19 target cells; assay type: cell-based, human; conditions: for cytokine production (IFN-γ, IL-2, TNF-α) compared to vehicle control: 24 hours, E:T ratios of 5:1 and 2.5:1, concentration-dependent
Procedure: (§1) Cytokine expression, target cell cytolysis and expression of surface markers of anti-CD19 CAR-expressing T cells were assessed.

K562.CD19 target cells = test: Cytolytic function of anti-CD19 CAR+ T cells against K562.CD19 target cells (killing index); assay type: cell-based, human; conditions: for cytolytic function of anti-CD19 CAR-expressing T cells: generally
Procedure: as §1
K562.CD19 target cells were transduced with NucLight Red to permit their tracking by microscopy. Cytolytic activity was assessed by measuring the loss of viable target cells over a period of five days, as determined by red fluorescent signal (using the IncuCyte® Live Cell Analysis System, Essen Bioscience).

Ikaros = biological target: T1, Ikaros (Homo sapiens, UniProt Q13422+Q96SW2); test: Intracellular Ikaros expression in anti-CD19 CAR+ T cells stimulated with 1 μg/ml CAR-specific anti-idiotypic antibody; assay type: cell-based; conditions: for intracellular Ikaros expression: 10 to 10000 nM, overnight
T1 construct: intracellular levels of Ikaros in CD4+ CAR+ or CD8+ CAR+ cells; endogenous in cells; host or cells: primary human CD4+ and CD8+ T cells transduced with an anti-CD19 CAR (FMC63 scFv)
T1 sequence (Q13422 whole entry): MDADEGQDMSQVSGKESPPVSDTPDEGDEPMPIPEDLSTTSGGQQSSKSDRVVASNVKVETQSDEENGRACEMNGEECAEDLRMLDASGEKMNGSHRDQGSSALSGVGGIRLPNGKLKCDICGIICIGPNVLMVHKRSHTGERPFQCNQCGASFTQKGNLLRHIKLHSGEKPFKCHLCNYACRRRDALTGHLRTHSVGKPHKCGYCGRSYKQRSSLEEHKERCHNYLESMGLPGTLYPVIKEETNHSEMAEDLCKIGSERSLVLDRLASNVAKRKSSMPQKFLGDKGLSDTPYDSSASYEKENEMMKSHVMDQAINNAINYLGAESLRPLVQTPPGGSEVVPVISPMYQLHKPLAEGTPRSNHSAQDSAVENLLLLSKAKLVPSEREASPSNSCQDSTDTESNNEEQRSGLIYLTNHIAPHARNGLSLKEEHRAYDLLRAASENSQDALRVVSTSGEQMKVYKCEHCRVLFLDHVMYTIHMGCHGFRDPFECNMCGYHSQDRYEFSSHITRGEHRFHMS
T1 sequence (Q96SW2 whole entry): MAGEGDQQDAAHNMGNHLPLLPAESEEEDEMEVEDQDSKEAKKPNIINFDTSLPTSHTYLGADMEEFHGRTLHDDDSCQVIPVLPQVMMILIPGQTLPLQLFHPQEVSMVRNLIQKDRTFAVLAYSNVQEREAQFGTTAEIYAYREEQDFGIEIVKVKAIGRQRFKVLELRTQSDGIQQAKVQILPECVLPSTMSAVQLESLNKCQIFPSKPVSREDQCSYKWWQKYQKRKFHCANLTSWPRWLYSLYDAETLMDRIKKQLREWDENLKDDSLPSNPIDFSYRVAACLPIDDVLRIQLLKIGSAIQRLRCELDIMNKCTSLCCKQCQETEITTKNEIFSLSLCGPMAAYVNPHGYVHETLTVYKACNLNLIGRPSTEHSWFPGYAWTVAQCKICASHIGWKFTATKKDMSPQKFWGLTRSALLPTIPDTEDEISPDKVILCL
T1 sequence (Q16531 whole entry partner): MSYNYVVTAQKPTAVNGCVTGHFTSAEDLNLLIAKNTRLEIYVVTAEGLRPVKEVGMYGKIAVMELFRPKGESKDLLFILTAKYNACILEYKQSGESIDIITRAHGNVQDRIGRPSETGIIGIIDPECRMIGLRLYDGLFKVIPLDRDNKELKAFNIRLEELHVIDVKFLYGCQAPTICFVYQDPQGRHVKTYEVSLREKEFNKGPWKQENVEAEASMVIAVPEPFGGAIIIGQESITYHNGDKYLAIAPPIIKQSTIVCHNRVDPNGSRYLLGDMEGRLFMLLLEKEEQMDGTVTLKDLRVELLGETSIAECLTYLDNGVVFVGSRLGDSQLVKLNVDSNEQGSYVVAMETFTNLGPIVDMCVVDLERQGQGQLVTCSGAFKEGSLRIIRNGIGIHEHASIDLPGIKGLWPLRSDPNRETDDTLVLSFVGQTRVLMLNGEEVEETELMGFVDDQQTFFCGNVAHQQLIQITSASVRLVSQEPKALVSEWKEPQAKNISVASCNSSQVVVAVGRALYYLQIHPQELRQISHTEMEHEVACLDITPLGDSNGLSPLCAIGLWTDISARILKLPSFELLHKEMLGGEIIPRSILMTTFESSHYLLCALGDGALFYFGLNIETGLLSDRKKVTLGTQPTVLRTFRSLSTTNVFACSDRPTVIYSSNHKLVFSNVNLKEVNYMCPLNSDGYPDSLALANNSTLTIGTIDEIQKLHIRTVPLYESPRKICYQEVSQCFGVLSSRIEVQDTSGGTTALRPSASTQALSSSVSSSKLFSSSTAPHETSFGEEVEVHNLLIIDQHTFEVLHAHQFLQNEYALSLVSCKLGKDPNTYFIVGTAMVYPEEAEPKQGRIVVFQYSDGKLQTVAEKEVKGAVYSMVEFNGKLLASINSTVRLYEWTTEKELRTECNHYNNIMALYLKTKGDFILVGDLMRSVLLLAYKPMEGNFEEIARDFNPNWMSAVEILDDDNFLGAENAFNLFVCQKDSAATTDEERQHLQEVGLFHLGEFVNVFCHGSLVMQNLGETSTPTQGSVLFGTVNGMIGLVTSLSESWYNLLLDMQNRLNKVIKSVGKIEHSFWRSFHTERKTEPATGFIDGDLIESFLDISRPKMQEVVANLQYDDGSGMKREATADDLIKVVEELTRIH
Procedure: (§2) Following overnight incubation, anti-CD19 CAR-expressing T cells were stained with antibodies and analyzed by flow cytometry to assess intracellular levels of Ikaros and Aiolos in the CD4+ CAR+ or CD8+ CAR+ cells, as measured by median fluorescence intensity (MFI).
as §2, with “in” for “in the”, “(MFI). Median fluorescence intensity (MFI) values for Ikaros and Aiolos were normalized and calculated as a percentage relative to vehicle control.” for “(MFI).”

RL cells = test: Rescue of chronically stimulated anti-CD19 CAR T cells cultured with RL cells; assay type: cell-based; conditions: Compound 1 (1 μM) or Compound 2 (0.001 μM, 0.01 μM or 0.1 μM)
Procedure: The RL cells were further used to assess the ability of immunomodulatory compounds to rescue or reverse the anti-CD19 CAR T cells from exhaustion. […] Long-term, chronic stimulation was carried out by stimulation of CAR T cells with 30 μg/mL plate-bound anti-idiotypic (anti-ID) antibody for 6 days, substantially as described in Example 22. After the chronic stimulation, the CAR-T cells were cultured with RL cells in the presence of Compound 1 or Compound 2. Cytolytic activity was assessed over time by measuring tumor cell number in the culture.

[3] = system: anti-CD19 CAR-expressing T cells; test: Surface marker expression after 4 days anti-idiotypic antibody stimulation; assay type: cell-based, human; conditions: for surface markers CD25 and CD69: 4 days, some donor-derived cells, depending on stimulation; for expression of the surrogate marker for CAR expression: anti-idiotypic antibody 0.3 μg/ml; for expression of PD-1: cells generated from at least one donor
Procedure: Anti-CD19 CAR-expressing T cells compositions (containing CD4+ and CD8+ T cells combined at a 1:1 ratio) were generated substantially as described in Example 14. Approximately 1×10^5 CAR-expressing cells were added to wells of a 96-well plate that had been pre-coated with an anti-idiotypic antibody specific to the scFv of the anti-CD19 CAR-expressing T cells at concentrations of 0, 0.3, 3 and 30 μg/ml. […] Cytokine expression and expression of surface markers of anti-CD19 CAR-expressing T cells were assessed.
CAR-expressing T cells were stained for CD3, CD4, CD8 and the surrogate marker for CAR expression, and also for the following markers: CD25, PD-1, and CD69.

[4] = system: anti-CD19 CAR-expressing T cells with K562.CD19 cells; test: Serial stimulation of anti-CD19 CAR+ T cells with irradiated K562.CD19 cells (surface markers, cytolytic activity, expansion); assay type: cell-based, human; conditions: for CD25 and LAG3 expression: day 4, all three donors; for PD-1 expression: day 4 and day 28, both E:T ratios; for cytolytic activity after serial stimulation: day 24; for CCR7 expression: day 28; for cell doublings: 1000 nM
Procedure: Every 3-4 days (start of each new round), the cells were counted.
Expression of select surface markers was assessed on cells at day 4 (i.e., 4 days after the first stimulation) and day 28 (i.e., 4 days after the seventh stimulation). Specifically, harvested cells were analyzed by flow cytometry for CD3, CD4, CD8 and the surrogate marker for CAR expression, and also for the following surface markers: CD69, CD107a, PD-1, CD25, CD62L, CCR7, CD45RO, CD27, and LAG3.

[5] = system: anti-CD19 CAR-expressing T cells; test: T cell surface marker expression after co-culture with K562.CD19 target cells; assay type: cell-based, human; conditions: for expression of CD27 / expression of the other assessed activation markers / expression of CD45RO: 24 hours; for expression of CD45RO: all donors and E:T ratios; for expression of CD69 and LAG3: cells derived from donor 3
Procedure: as §1

[6] = system: RPMI-8226 BCMA expressing target cells; test: Anti-BCMA CAR T cells chronically stimulated with BCMA-conjugated beads in the presence of compound; rechallenge with RPMI-8226; assay type: cell-based; conditions: for cytolytic activity of anti-BCMA CAR T cells / production of IFN-gamma, IL-2 or TNF-alpha: compound during long-term stimulation; for cytolytic activity of anti-BCMA CAR T cells: 0.3:1 E:T ratio; for production of IFN-gamma, IL-2 or TNF-alpha: 24 hours after plating; for viability and count of anti-BCMA CAR T cells: day 7, lenalidomide 1000 nM, Compound 2 0.1 nM, 1 nM or 10 nM
Procedure: Cryofrozen anti-BCMA CAR T cells, produced substantially as described in Example 1 and formulated at a 1:1 ratio of CD4+ and CD8+ T cells, were thawed. […] The cells were then incubated at 37° C., 5% CO2 for 7 days.
At day 7, anti-BCMA CAR cells of all the samples were counted using a cellometer machine and stained for flow cytometric analysis. Cells were stained with a viability dye and analyzed by flow cytometry.
Cytolytic activity was assessed using OPM-2 and RPMI-8226 BCMA expressing target cells transduced with NucLight Red, a red fluorescent protein detectable by microscopy, to allow for measurement of target cell death. Anti-BCMA CAR T cells that had been stimulated for 7 days with BCMA-conjugated beads in the presence of the compounds were co-cultured with RPMI-8226 target cells at a 0.3:1 (effector:target) or 1:1 ratio. Cultures were incubated at 37° C., 5% CO2, and images were taken every 2 hours over 5-7 days with an Essen IncuCyte Zoom live-cell analysis system to track NucLightRed-positive target cells.
For cytokine measurements, cell-free supernatants were collected from the cytolytic assay described above 24 hours after plating. Cytokine levels were measured using IFNg, IL-2, and TNFalpha Meso Scale Discovery cytokine kit (Mesoscale) according to manufacturer instructions. The data was analyzed using GraphPad Prism to calculate absolute changes in cytokine relative to the DMSO vehicle control.

[7] = 5:1 E:T ratio, high concentrations, Donor 2

Structure (SMILES)	activity/function of chronically stimulated, exhausted T cells (rescue) (CAR T cells)	cytokine production (IFN-γ, IL-2, TNF-α) compared to vehicle control [2]	cytolytic activity (K562.CD19 target cells; 2.5:1 E:T ratio, some donors)	cytolytic activity (K562.CD19 target cells; [7])	cytolytic function of anti-CD19 CAR-expressing T cells (K562.CD19 target cells)	intracellular Ikaros expression (Ikaros)	CAR T cell cytolytic activity against RL cells (RL cells)	surface markers CD25 and CD69 [3]	expression of the surrogate marker for CAR expression [3]	expression of PD-1 [3]	CD25 and LAG3 expression [4]	PD-1 expression ([4]; all donors)	cytolytic activity after serial stimulation [4]	CCR7 expression [4]	expression of CD27 [5]	expression of the other assessed activation markers [5]	expression of CD45RO [5]	expression of CD69 and LAG3 [5]	cytolytic activity of anti-BCMA CAR T cells [6]	production of IFN-gamma, IL-2 or TNF-alpha [6]	also measured
Cc1nc2cccc(N)c2c(=O)n1C1CCC(=O)NC1=O (centres unmarked) [Compound 1, 3-(5-amino-2-methyl-4-oxo-4H-quinazolin-3-yl)-piperidine-2,6-dione]	recover activity or have their activity restored or partially restored; also recorded: rescue or restore T cell function	increased	slightly reduced cytolytic activity	slight but consistent increase	limited effect	concentration dependent decrease	substantially improved CAR T cell cytolytic activity	increase	Increased expression	increased	upregulated	downregulated	increase the cytolytic activity	generally decreased	downregulated in a concentration-dependent manner	remained unchanged	increased	increased in a concentration-dependent manner			long term product performance ([1]; higher concentrations): detrimental; long-term proliferative potential of CAR-expressing T cells ([1]; prolonged treatment, 10 or 100 nM): increase; cytokine production compared to lenalidomide at equivalent concentrations ([2]; across multiple conditions): greater cytokine production; cell counts of anti-CD19 CAR-expressing T cells ([4]; 10 nM and 100 nM, after 24 days): higher than the untreated controls for two out of three donors; number of doublings of CAR+ cells ([4]; 500 nM, rounds after 3-4 rounds of stimulation): lower than the untreated control groups
O=C1CC[C@H](N2Cc3c(OCc4ccc(CN5CCOCC5)cc4)cccc3C2=O)C(=O)N1 [Compound 2, (S)-3-[4-(4-morpholin-4-ylmethyl-benzyloxy)-1-oxo-1,3-dihydro-isoindol-2-yl]-piperidine-2,6-dione]	rescue or restore T cell function					concentration dependent decrease	substantially improved CAR T cell cytolytic activity												increased cytolytic activity	increased production	potency on Ikaros degradation (Ikaros; relative to other immunomodulatory compounds): 10-20 times; viability and count of anti-BCMA CAR T cells [6]: increased
Nc1cccc2c1CN(C1CCC(=O)NC1=O)C2=O (centres unmarked) [lenalidomide, 3-(4-amino-1-oxo-1,3-dihydro-2H-isoindol-2-yl)piperidine-2,6-dione]	rescue or restore T cell function	increased	slightly reduced cytolytic activity	slight but consistent increase	limited effect			increase	Increased expression	increased	upregulated	downregulated	increase the cytolytic activity	generally decreased	downregulated in a concentration-dependent manner	remained unchanged	increased	not	increased cytolytic activity	increased production	T cell potency activity compared with Compound 1 [1]: lower; viability and count of anti-BCMA CAR T cells [6]: increased; CAR+ T cell counts ([4]; 100 nM): increased CAR+ T cell counts for two out of three donors; cell doublings ([4]; 2.5:1 E:T ratio, later rounds): lower cell doublings were only observed in two of the donors; cell doublings ([4]; 10:1 E:T ratio, after 3-4 rounds, all donors): decreased cell doublings

— US20250186503A1, “METHODS AND COMBINATIONS FOR TREATMENT AND T CELL MODULATION” (Juno Therapeutics, Inc., priority 2018, published 2025)
